{"source": "paper PMC10504874", "about": "(Journal of medicinal chemistry, 2021)", "key": {"cruzain [1]": {"biological_target": "T1, cruzain (Trypanosoma cruzi, UniProt P25779)", "T1 sequence (P25779 123-337 limits assumed)": "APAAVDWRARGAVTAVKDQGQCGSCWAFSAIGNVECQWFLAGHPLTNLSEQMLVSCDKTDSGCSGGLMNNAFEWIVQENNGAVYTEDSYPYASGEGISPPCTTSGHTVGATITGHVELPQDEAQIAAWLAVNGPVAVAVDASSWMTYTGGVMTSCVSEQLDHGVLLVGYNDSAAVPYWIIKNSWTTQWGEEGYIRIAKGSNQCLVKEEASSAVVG", "assay": "Cruzain inhibition, fluorogenic substrate Cbz-Phe-Arg-AMC time courses", "assay_type": "biochemical"}, "cruzain [2]": {"biological_target": "T1, cruzain", "assay": "biochemical", "conditions": "read-out: Residence time τ=1/kobs"}, "[3]": {"tested_on": "T. cruzi-infected cardiomyoblasts", "assay": "T. cruzi-infected C2C12 murine cardiomyoblast assay", "assay_type": "cell-based", "conditions": "Trypanosoma cruzi, C2C12, in Mus musculus, 48 h, read-out: T. cruzi-infected cardiomyoblasts EC50, C2C12 cells, T. cruzi Ca-I/72, 2 days, 0.02–40 μM"}, "[4]": {"tested_on": "C2C12 murine cardiomyoblast cells", "assay": "Toxicity against host cardiomyoblasts in the T. cruzi infection assay", "assay_type": "cell-based", "conditions": "at up to 40 μM"}, "[5]": {"assay": "Detection of aldehyde content using phenylhydrazine", "assay_type": "physicochemical", "conditions": "0.2 mM compound, 1 mM phenylhydrazine; for Reaction with excess phenylhydrazine (in words): 2 h; for kobs of phenylhydrazone formation: Abs 282 nm, pH 7.5 buffer lacking DTT"}, "[6]": {"assay": "Pharmacokinetic evaluation in mice by intravenous administration", "assay_type": "in vivo", "conditions": "data not shown"}, "[7]": {"assay": "Stability of prodrugs in buffer without esterase", "assay_type": "physicochemical", "conditions": "buffer pH 7.5, over 3 h"}, "human cathepsin L": {"biological_target": "human cathepsin L (Homo sapiens, UniProt P07711)", "sequence (P07711 114-333)": "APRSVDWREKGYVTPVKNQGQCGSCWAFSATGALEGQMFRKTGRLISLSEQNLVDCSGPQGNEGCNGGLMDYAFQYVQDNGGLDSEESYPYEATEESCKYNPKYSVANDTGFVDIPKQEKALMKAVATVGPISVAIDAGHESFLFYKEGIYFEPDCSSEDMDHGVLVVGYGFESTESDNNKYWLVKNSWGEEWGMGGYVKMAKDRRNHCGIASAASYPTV", "assay": "Human cathepsin L inhibition", "assay_type": "biochemical"}, "T. b. brucei BSFs [8]": {"tested_on": "T. b. brucei BSFs", "assay": "Axenic cultures of T. b. brucei bloodstream forms, growth inhibition", "conditions": "Trypanosoma brucei, read-out: T. b. brucei BSFs EC50"}, "T. b. brucei BSFs [9]": {"tested_on": "T. b. brucei BSFs", "conditions": "read-out: EC50 in T. b. brucei BSFs; cited from earlier work"}}, "note": "Where two headings read alike, the source gives them in different places. Residues, ends and D or L forms follow the SMILES beside them. *: point of attachment. Cbz = O=C(OCc1ccccc1)*"}
{"smiles": "CN1CCN(C(=O)N[C@@H](Cc2ccccc2)C(=O)N[C@@H]2Cc3ccccc3C[C@H]2O)CC1", "note": "(mixture of isomers) [Compound 3, N-((S)-1-(((2S,3S)-3-hydroxy-1,2,3,4-tetrahydronaphthalen-2-yl)amino)-1-oxo-3-phenylpropan-2-yl)-4-methylpiperazine-1-carboxamide and N-((S)-1-(((2R,3R)-3-hydroxy-1,2,3,4-tetrahydronaphthalen-2-yl)amino)-1-oxo-3-phenylpropan-2-yl)-4-methylpiperazine-1-carboxamide]", "values": [{"measurement": "Cruzain inhibition (in words)", "setting": "cruzain [1]; at ≤100 μM", "value": "did not inhibit cruzain"}]}
{"smiles": "O=C[C@H](Cc1ccccc1)NC(=O)[C@H](Cc1ccccc1)NC(=O)OCc1ccccc1", "note": "[Compound 1, Cbz-Phe-Phe-H] (Cbz-Phe-Phe-aldehyde)", "values": [{"measurement": "k4, rate constant for conversion of EI* back to EI", "setting": "cruzain [1]; from replot of kobs vs [I], eq 3", "value": "(7.6±0.6)×10^–4 s^–1"}, {"measurement": "residence time", "setting": "cruzain [2]", "value": 52, "unit": "min"}, {"measurement": "EC50", "setting": "[3]", "value": 400, "unit": "nM"}, {"measurement": "Toxicity against the host cardiomyoblasts", "setting": "[4]", "value": "significant cytotoxicity"}]}
{"smiles": "O=C(N[C@@H](Cc1ccccc1)C(=O)N[C@H]1Cc2ccccc2OC1O)OCc1ccccc1", "note": "(stereo partly drawn) [Compound 2, Cbz-Phe-o-Tyr-H]", "values": [{"measurement": "Ratio Ki*(SMAI)/Ki*(free aldehyde counterpart)", "setting": "cruzain [1]; Ki*(12)/Ki*(11), Ki*(2)/Ki*(1)", "value": 110}, {"measurement": "residence time", "setting": "cruzain [2]", "value": "2.5 to 5.5", "unit": "min"}]}
{"smiles": "COc1ccccc1C[C@@H](C=O)NC(=O)[C@H](Cc1ccccc1)NCC(=O)OCc1ccccc1", "note": "[Compound 5]", "values": [{"measurement": "Fold less active than aldehyde 1 versus cruzain", "setting": "cruzain [1]", "value": 50, "unit": "fold"}]}
{"smiles": "COc1ccc2c(c1)C[C@H](NC(=O)[C@H](Cc1ccccc1)NC(=O)OCc1ccccc1)C(O)O2", "note": "(some centres unmarked) [Compound 6]", "values": [{"measurement": "Fold lower activity than 7", "setting": "cruzain [1]", "value": "over 3 fold"}, {"measurement": "Fold more weakly binding than un-substituted SMAI 2", "setting": "cruzain [1]", "value": 7, "unit": "fold"}, {"measurement": "residence time", "setting": "cruzain [2]", "value": "2.5 to 5.5", "unit": "min"}]}
{"smiles": "Cc1ccc2c(c1)C[C@H](NC(=O)[C@H](Cc1ccccc1)NC(=O)OCc1ccccc1)C(O)O2", "note": "(stereo partly drawn) [Compound 7, Benzyl ((2S)-1-(((3S)-2-hydroxy-6-methylchroman-3-yl)amino)-1-oxo-3-phenylpropan-2-yl)carbamate]", "values": [{"measurement": "residence time", "setting": "cruzain [2]", "value": "2.5 to 5.5", "unit": "min"}]}
{"smiles": "O=C(N[C@@H](Cc1ccccc1)C(=O)N[C@H]1Cc2cc(Cl)ccc2OC1O)OCc1ccccc1", "note": "(some centres unmarked) [Compound 8]", "values": [{"measurement": "residence time", "setting": "cruzain [2]", "value": "2.5 to 5.5", "unit": "min"}]}
{"smiles": "O=C(N[C@@H](Cc1ccccc1)C(=O)N[C@H]1Cc2cc(F)ccc2OC1O)OCc1ccccc1", "note": "(some centres unmarked) [Compound 9]", "values": [{"measurement": "residence time", "setting": "cruzain [2]", "value": "2.5 to 5.5", "unit": "min"}]}
{"smiles": "COC(=O)c1ccc2c(c1)C[C@H](NC(=O)[C@H](Cc1ccccc1)NC(=O)OCc1ccccc1)C(O)O2", "note": "(some centres unmarked) [Compound 10]", "values": [{"measurement": "Fold increase in potency versus 2", "setting": "cruzain [1]", "value": 3, "unit": "fold"}, {"measurement": "residence time", "setting": "cruzain [2]", "value": "2.5 to 5.5", "unit": "min"}]}
{"smiles": "CN1CCN(C(=O)N[C@@H](Cc2ccccc2)C(=O)N[C@H](C=O)CCc2ccccc2)CC1", "note": "[Compound 11, 4-Methyl-N-((S)-1-oxo-1-(((S)-1-oxo-4-phenylbutan-2-yl)amino)-3-phenylpropan-2-yl)piperazine-1-carboxamide]", "values": [{"measurement": "Reaction with excess phenylhydrazine (in words)", "setting": "[5]", "value": "completely converted to phenylhydrazone"}, {"measurement": "kobs of phenylhydrazone formation", "setting": "[5]", "value": "(2.61±0.05)×10^–4 s^–1"}]}
{"smiles": "CN1CCN(C(=O)N[C@@H](Cc2ccccc2)C(=O)N[C@H]2Cc3ccccc3OC2O)CC1", "note": "(some centres unmarked) [Compound 12]", "values": [{"measurement": "residence time", "setting": "cruzain [2]", "value": 26, "unit": "min"}, {"measurement": "Reaction with excess phenylhydrazine (in words)", "setting": "[5]", "value": "remained intact after 2 h"}, {"measurement": "kobs of phenylhydrazone formation", "setting": "[5]", "value": "negligible"}, {"measurement": "Half-life in mice (in words)", "setting": "[6]", "value": "short half-life"}]}
{"smiles": "CC(=O)OC1Oc2ccccc2C[C@@H]1NC(=O)[C@H](Cc1ccccc1)NC(=O)N1CCN(C)CC1", "note": "(stereo partly drawn) [Compound 13, (3S)-3-((S)-2-(4-methylpiperazine-1-carboxamido)-3-phenylpropanamido)chroman-2-yl acetate]", "values": [{"measurement": "Degradation in buffer without esterase", "setting": "[7]", "value": "about 10%"}]}
{"smiles": "CCOC1Oc2ccccc2C[C@@H]1NC(=O)[C@H](Cc1ccccc1)NC(=O)N1CCN(C)CC1", "note": "(stereo partly drawn) [Compound 16, N-((2S)-1-(((3S)-2-ethoxychroman-3-yl)amino)-1-oxo-3-phenylpropan-2-yl)-4-methylpiperazine-1-carboxamide]", "values": [{"measurement": "Cruzain inhibition by prodrugs (in words)", "setting": "cruzain [1]", "value": "did not inhibit cruzain"}]}
{"smiles": "CC(C)OC1Oc2ccccc2C[C@@H]1NC(=O)[C@H](Cc1ccccc1)NC(=O)N1CCN(C)CC1", "note": "(some centres unmarked) [Compound 17]", "values": [{"measurement": "Cruzain inhibition by prodrugs (in words)", "setting": "cruzain [1]", "value": "did not inhibit cruzain"}]}
{"smiles": "CC(C)[C@H](NC(=O)OCc1ccccc1)C(=O)N[C@@H](CC1CCCCC1)C(=O)N[C@H](C=O)Cc1ccc[nH]c1=O", "note": "[Compound 18]", "values": [{"measurement": "Inhibition of human cathepsin L (in words)", "setting": "human cathepsin L", "value": "inhibited human cathepsin L"}]}
{"smiles": "CN1CCN(C(=O)N[C@@H](Cc2ccccc2)C(=O)N[C@H](/C=C/S(=O)(=O)c2ccccc2)CCc2ccccc2)CC1", "note": "[K777, reference compound]", "values": [{"measurement": "Toxicity against the host cardiomyoblasts", "setting": "[4]", "value": "significant cytotoxicity"}, {"measurement": "EC50", "setting": "T. b. brucei BSFs [8]", "value": "90 ± 60", "unit": "nM"}]}
{"smiles": "N=C(N)c1ccc(/N=N/Nc2ccc(C(=N)N)cc2)cc1", "note": "[diminazene]", "values": [{"measurement": "EC50", "setting": "T. b. brucei BSFs [9]", "value": 990, "unit": "nM"}]}
